Data reported in article PMC9019169, “Direct Regulation of Hyperpolarization-Activated Cyclic-Nucleotide Gated (HCN1) Channels by Cannabinoids” (Frontiers in Molecular Neuroscience, 2022).

How the values were obtained:
mouse HCN1 (mHCN1) [1] = molecular target: T1, mouse HCN1 (mHCN1) (Mus musculus, UniProt O88704); experiment: two-electrode voltage clamp, Xenopus oocytes, Hill fit of current; assay type: cell-based
T1 construct: full-length wild-type cDNA in pGH19, cRNA expressed in Xenopus laevis oocytes; homotetrameric channel

mouse HCN1 (mHCN1) [2] = molecular target: T1, mouse HCN1 (mHCN1); experiment: as above; assay type: cell-based; details: read-out: relative IC50

T1 sequence (O88704 whole entry): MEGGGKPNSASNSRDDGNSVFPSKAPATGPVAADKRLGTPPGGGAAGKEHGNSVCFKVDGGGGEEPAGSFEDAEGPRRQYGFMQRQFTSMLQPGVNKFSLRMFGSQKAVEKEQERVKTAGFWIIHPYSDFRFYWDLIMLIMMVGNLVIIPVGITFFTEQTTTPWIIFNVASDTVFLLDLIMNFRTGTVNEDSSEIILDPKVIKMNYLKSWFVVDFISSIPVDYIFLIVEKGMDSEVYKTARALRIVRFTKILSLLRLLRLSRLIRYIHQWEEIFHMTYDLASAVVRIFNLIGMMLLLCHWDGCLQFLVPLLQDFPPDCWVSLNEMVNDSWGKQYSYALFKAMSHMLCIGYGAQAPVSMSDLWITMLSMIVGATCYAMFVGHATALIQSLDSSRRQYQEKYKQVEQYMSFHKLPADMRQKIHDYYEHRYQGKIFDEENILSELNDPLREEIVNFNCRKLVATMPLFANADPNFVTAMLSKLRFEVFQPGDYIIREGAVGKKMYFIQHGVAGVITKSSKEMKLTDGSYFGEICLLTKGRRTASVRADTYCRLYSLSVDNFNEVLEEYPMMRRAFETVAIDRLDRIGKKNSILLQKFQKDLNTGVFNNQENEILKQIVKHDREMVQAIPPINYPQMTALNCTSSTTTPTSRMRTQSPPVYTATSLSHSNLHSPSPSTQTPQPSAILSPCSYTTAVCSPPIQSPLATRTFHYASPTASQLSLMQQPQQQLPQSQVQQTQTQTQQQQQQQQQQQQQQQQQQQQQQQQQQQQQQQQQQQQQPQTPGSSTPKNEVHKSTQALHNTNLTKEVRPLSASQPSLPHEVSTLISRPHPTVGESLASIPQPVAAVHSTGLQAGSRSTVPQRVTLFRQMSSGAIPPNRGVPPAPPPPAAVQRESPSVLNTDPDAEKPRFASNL

| SMILES | EC50 (mouse HCN1 (mHCN1) [1]) [µM] | IC50 (mouse HCN1 (mHCN1) [2]) [µM] |
| --- | --- | --- |
| C=C(C)[C@@H]1CCC(C)=C[C@H]1c1c(O)cc(CCCCC)cc1O [cannabidiol] | 28.5 |  |
| CCCCCc1cc(O)c2c(c1)OC(C)(C)[C@@H]1CCC(C)=C[C@@H]21 [Δ9-tetrahydrocannabinol] |  | 21.8 |
